Values joined by “and” are separate entries in the source; they are usually repeats but may differ in a detail not shown here. Equal entries are not always repeated. Where two headings read alike, the source gives them in different places.
Experiments:
[1] = biological target: KDR (h) (VEGFR2) (Homo sapiens, UniProt P35968); test: KDR (VEGFR2) (enzymatic assay), TR-FRET; assay type: biochemical
How it was run: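 Enzyme at 150 ng/ml was incubated 120 min at room temperature with 500 nM Btn-Flt3 peptide and 3 μM ATP in 50 mM HEPES pH 7.5, 6 mM MnCl2, 1 mM DTT, 0.1 mM Na3VO4, 0.01% Triton-X-100, 1% DMSO final. EDTA stop with Eu-anti-P-Tyr/SA-XL-665, 60 min; TR-FRET read in RFU.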

[2] = biological target: T1, Ba/F3-Flt3-transfected cells (Homo sapiens, UniProt P36888, cells depend on it, form not given); test: Ba/F3-Flt3 (minus IL3) cellular proliferation assay, Alamar Blue; assay type: cell-based; conditions: minus IL3
T1 sequence (P36888 1-993): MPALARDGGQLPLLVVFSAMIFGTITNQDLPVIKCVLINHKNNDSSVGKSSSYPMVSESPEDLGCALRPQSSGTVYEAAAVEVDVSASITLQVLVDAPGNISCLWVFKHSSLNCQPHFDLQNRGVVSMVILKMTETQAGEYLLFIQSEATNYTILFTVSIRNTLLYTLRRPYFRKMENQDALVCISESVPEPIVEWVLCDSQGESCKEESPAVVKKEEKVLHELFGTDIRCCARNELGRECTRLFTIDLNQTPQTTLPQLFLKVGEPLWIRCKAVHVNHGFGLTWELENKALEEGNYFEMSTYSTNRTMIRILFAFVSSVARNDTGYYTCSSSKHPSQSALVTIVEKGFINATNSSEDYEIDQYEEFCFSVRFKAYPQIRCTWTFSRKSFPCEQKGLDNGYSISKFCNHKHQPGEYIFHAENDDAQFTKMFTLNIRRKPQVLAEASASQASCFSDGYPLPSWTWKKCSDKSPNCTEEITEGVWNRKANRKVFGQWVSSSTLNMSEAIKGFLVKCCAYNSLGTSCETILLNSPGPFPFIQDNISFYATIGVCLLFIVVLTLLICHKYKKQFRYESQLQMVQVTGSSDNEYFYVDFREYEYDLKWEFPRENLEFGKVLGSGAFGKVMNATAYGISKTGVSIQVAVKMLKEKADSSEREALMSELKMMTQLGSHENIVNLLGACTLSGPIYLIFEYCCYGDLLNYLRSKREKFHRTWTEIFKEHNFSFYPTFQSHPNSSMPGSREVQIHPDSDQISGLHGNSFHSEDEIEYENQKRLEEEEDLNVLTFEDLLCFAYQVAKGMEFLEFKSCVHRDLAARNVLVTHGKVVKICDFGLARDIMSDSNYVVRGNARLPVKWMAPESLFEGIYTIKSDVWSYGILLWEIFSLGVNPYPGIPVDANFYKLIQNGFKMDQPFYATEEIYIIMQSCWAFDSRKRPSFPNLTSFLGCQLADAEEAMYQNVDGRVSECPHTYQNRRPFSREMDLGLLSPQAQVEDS

[3] = test system: Ba/F3-FGFR1-transfected cells in the presence of 10 ng/ml murine IL3; test: Ba/F3-FGFR1 (plus IL3) cellular proliferation counterscreen, Alamar Blue; assay type: cell-based; conditions: for IC50: Mus musculus
How it was run: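 Cells (20000 per well in 384-well format or 10000 per well in 96-well format) in phenol red-free RPMI-1640 with 10% FBS were exposed to compound in DMSO for 24 h at 37 °C, 5% CO2. Resazurin-based Alamar Blue was then added for 4 h, and fluorescence was read at ex 540/em 590 nm.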

[4] = plus IL3, 384 well, read-out: BAF3-FGFR 1 (PLUS IL3) 384 well pIC50 (converted)
[5] = plus IL3, 96 well, read-out: BAF3-FGFR 1 (PLUS IL3) 96 well pIC50 (converted)

KDR (h) (VEGFR2), sequence (P35968 20-1356): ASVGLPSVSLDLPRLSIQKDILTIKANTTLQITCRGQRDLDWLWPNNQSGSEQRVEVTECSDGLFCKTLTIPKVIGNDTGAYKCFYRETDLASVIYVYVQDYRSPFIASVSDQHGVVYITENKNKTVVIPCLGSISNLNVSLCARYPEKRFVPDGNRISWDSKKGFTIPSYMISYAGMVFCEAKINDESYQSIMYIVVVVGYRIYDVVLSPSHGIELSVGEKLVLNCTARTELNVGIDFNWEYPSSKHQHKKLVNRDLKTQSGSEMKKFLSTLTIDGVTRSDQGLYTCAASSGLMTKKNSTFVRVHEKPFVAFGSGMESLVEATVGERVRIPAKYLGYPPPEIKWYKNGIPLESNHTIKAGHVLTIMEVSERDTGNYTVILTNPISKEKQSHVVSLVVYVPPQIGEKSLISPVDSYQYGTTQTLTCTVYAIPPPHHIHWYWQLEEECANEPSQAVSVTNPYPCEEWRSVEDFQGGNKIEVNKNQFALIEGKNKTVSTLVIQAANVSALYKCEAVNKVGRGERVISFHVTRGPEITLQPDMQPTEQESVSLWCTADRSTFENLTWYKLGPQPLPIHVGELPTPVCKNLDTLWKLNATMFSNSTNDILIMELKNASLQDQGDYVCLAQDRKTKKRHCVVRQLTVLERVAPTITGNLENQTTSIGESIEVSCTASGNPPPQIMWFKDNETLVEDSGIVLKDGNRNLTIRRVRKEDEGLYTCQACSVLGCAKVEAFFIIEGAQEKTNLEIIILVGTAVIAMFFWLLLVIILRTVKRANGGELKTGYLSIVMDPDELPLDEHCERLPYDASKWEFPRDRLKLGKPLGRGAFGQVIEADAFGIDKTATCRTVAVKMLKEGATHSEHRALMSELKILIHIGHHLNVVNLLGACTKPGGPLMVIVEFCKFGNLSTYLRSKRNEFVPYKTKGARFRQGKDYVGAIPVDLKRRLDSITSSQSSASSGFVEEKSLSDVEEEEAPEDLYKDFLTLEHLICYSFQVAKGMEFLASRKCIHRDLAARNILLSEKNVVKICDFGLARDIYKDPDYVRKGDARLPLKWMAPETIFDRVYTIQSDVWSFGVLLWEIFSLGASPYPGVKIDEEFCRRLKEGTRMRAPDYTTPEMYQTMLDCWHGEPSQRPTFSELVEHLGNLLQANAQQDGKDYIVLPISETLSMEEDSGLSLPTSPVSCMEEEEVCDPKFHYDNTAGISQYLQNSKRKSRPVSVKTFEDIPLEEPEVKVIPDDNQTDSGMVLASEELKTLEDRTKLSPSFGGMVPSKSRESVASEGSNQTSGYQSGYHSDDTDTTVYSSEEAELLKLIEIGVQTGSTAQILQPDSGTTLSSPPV

SMILES | IC50 [1] [µM] | melting point | BAF3-FLT3 (MIN IL3) 384 well pIC50 [2] | BAF3-FLT3 (MIN IL3) 96 well pIC50 [2] | IC50 [3, 4] [µM] | BAF3-FGFR 1 (PLUS IL3) 384 well pIC50 ([3]; plus IL3, 384 well) | IC50 [3, 5] [µM]
COCCN(c1cc(OC)cc(OC)c1)c1ccc2ncc(-c3ccn(C)c3)nc2c1 [Compound 6] | 0.107 | 135 °C | <5 | – | > 10 | – | –
COc1cc(OC)cc(N(CCO)c2ccc3ncc(-c4cccnc4)nc3c2)c1 [Compound 9] | 0.295 | 151 °C | <5 | – | > 10 | – | –
COc1cc(OC)cc(N(CCO)c2ccc3ncc(-c4ccncc4)nc3c2)c1 [Compound 11] | 0.269 | 158 °C | <5 | – | > 10 | – | –
COc1cc(OC)cc(N(CCNC(C)C)c2ccc3ncc(-c4ccncc4)nc3c2)c1 [Compound 12] | 0.0955 | 118 °C | 5.14 | – | > 10 | – | –
CNC(=O)c1cc(-c2cnc3ccc(N(CCNC(C)C)c4cc(OC)cc(OC)c4)cc3n2)ccn1 [Compound 14] | 0.49 | 68 °C | 5.02 | – | ~7.08 | – | –
COc1cc(OC)cc(N(CCNC(C)C)c2ccc3ncc(-c4ccc(N)nc4)nc3c2)c1 [Compound 17] | 0.0944 | 144 °C | 5.17 | – | ~7.76 | – | –
COc1cc(OC)cc(N(CC2CC2)c2ccc3ncc(-c4ccnn4C)nc3c2)c1 [Compound 18] | > 10 | 132 °C | <5 | <5 | > 10 | – | > 10
COc1cc(OC)cc(N(CC2CC2)c2ccc3ncc(-c4cn(C)cn4)nc3c2)c1 [Compound 21] | 0.708 | 136 °C | <5 | <5 | > 10 | – | > 10
COc1cc(OC)cc(N(CC2CC2)c2ccc3ncc(C#Cc4ccncc4)nc3c2)c1 [Compound 23] | > 1 | 60 °C | <5 | 5.31 | > 10 | – | 5.89
COc1cc(OC)cc(N(CC2CC2)c2ccc3ncc(-c4cn(CCN5CCOCC5)nn4)nc3c2)c1 [Compound 24] | 0.832 | 128 °C | <5 | <5 | > 10 | – | > 10
CNC(=O)c1cc(-c2cnc3ccc(N(CCN4CCCC4=O)c4cc(OC)cc(OC)c4)cc3n2)ccn1 [Compound 25] | > 1 | 176 °C | <5 | – | > 10 | – | –
COc1cc(OC)cc(N(CC2CC2)c2ccc3ncc(-n4cnc(C)c4)nc3c2)c1 [Compound 30] | 0.501 | 113 °C | <5 | 5.06 | > 10 | – | > 10
COc1cc(OC)cc(N(CC2CC2)c2ccc3ncc(-n4ccc(C)n4)nc3c2)c1 [Compound 31] | > 1 | 107 °C | <5 | <5 | > 10 | – | > 10

Now from value to compound, other results behind:

IC50 [1] [µM] | melting point | BAF3-FLT3 (MIN IL3) 384 well pIC50 [2] | BAF3-FLT3 (MIN IL3) 96 well pIC50 [2] | SMILES | IC50 [3, 4] [µM] | BAF3-FGFR 1 (PLUS IL3) 384 well pIC50 ([3]; plus IL3, 384 well) | IC50 [3, 5] [µM]
0.363 | 211 °C | <5 | – | COc1cc(OC)cc(N(CC(O)C(F)(F)F)c2ccc3ncc(-c4cccnc4)nc3c2)c1 (single isomer, unassigned) [Compound 53] | > 10 | – | –
0.794 | 210 °C | <5 | – | COc1cc(OC)cc(N(CC(O)C(F)(F)F)c2ccc3ncc(-c4cccnc4)nc3c2)c1 (single isomer, unassigned) [Compound 54] | – | <5 | –
– | 180 °C | <5 | – | COc1cc(OC)cc(N(CC(OC(C)=O)C(F)(F)F)c2ccc3ncc(-c4cccnc4)nc3c2)c1 (single isomer, unassigned) [Compound 75] | – | <5 | –
0.575 | 110 °C | <5 | – | COc1cc(OC)cc(N(CCCO)c2ccc3ncc(-c4ccnc(C(=O)NCCCN)c4)nc3c2)c1 [Compound 33] | > 10 | – | –
0.398 | 178 °C and 177 °C | <5 | <5 | COc1cc(OC)cc(N(CC2CC2)c2ccc3ncc(-c4cn(CCO)nn4)nc3c2)c1 [Compound 40] | > 10 | – | > 10
3.31 | 216 °C | <5 | <5 | COc1cc(OC)cc(N(CC2CC2)c2ccc3ncc(-c4nnn[nH]4)nc3c2)c1 [Compound 41] | > 10 | – | > 10
0.11 | 184 °C | 5.44 | – | COc1cc(OC)cc(N(CCCO)c2ccc3ncc(-c4ccc(N5CCNCC5)nc4)nc3c2)c1 [Compound 48] | ~5.25 | – | –
0.0759 | 137 °C | – | – | COc1cc(OC)cc(N(CCCO)c2ccc3ncc(-c4ccnc(N)c4)nc3c2)c1 [Compound 66] | > 10 | – | –
0.468 | 150 °C | – | – | COc1cc(OC)cc(N(CCCO)c2ccc3ncc(-c4cccnc4)nc3c2)c1 [Compound 112] | > 10 | – | –
> 1 | 143 °C | <5 | – | COc1cc(OC)cc(N(CCCO)c2ccc3ncc(-c4ccc(N(C)C(=O)OC(C)(C)C)nc4)nc3c2)c1 [Compound 125] | – | – | –
0.661 | 130 °C | <5 | – | COc1cc(OC)cc(N(CCCO)c2ccc3ncc(-c4ccnc(C(=O)NCCCCN)c4)nc3c2)c1 [Compound 126] | – | – | –
